Data reported in BindingDB's records for patent US12440484 (Chong Kun Dang Pharmaceutical, 2025).

Tests used:
Histone deacetylase 1 = Histone deacetylase 1 (Homo sapiens, UniProt Q13547); experiment: Identification of HDAC Enzyme Activity Inhibition (In Vitro)
Protocol: (§1) For a HDAC1 assay, samples were treated at a concentration of 100, 1000 and 10000 nM. For a HDAC6 assay, samples were treated at a concentration of 0.1, 1, 10, 100 and 1000 nM.

Histone deacetylase 6 = biological target: T1, Histone deacetylase 6 (Homo sapiens, UniProt Q9UBN7); experiment: as above
T1 sequence (Q9UBN7 whole entry): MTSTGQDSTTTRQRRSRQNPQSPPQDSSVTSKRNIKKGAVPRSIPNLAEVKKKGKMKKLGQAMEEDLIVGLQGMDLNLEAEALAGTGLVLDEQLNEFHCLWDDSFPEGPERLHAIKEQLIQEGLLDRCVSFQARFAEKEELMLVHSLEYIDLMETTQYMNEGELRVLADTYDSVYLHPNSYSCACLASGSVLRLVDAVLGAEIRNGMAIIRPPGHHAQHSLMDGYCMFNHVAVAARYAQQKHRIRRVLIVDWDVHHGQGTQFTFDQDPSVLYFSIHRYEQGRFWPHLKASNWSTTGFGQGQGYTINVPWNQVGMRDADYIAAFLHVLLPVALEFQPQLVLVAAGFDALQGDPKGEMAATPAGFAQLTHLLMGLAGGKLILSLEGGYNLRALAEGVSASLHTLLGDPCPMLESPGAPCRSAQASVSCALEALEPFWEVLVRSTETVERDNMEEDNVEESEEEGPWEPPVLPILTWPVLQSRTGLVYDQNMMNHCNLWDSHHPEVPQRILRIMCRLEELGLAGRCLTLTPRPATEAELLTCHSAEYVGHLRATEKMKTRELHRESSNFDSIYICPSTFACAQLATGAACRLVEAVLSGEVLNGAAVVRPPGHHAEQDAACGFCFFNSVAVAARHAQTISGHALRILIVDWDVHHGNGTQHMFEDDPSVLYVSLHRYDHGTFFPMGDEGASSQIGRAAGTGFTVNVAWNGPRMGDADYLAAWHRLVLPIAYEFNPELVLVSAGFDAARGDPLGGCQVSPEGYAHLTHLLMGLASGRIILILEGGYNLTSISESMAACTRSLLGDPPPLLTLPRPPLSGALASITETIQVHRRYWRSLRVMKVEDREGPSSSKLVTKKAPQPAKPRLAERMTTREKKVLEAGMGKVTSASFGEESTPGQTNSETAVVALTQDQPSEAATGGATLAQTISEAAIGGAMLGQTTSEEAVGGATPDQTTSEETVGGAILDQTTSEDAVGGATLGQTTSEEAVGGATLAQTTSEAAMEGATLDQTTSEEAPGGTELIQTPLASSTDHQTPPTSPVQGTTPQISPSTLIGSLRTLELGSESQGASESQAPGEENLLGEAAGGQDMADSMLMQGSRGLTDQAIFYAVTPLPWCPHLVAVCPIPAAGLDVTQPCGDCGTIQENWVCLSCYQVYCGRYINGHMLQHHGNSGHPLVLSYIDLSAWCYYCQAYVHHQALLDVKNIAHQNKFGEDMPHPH
Protocol: as §1

Sequence of Histone deacetylase 1 (Q13547 whole entry): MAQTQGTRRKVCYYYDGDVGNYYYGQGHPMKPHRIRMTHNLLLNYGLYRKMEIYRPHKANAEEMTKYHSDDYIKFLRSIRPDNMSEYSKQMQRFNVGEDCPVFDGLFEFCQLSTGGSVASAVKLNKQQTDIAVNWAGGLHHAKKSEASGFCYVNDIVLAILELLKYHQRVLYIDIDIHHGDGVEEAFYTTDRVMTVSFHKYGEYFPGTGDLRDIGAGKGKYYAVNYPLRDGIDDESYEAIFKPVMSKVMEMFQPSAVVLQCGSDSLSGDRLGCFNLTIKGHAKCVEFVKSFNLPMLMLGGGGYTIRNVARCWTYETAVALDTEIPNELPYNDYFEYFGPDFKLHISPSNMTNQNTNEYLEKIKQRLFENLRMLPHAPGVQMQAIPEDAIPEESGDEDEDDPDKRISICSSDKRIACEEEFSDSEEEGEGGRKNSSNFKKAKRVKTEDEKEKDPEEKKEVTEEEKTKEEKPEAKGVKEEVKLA

IC50 (Histone deacetylase 1) | IC50 (Histone deacetylase 6) | Compound
> 10000 nM | 33 nM | COCCN1CCC(c2ccc3c(c2)C(=O)N(Cc2ccc(-c4nnc(C(F)F)o4)cn2)C(=O)C3(C)C)CC1 [US12440484, Compound 151]
> 10000 nM | 43 nM | CC1(C)C(=O)N(Cc2ccc(-c3nnc(C(F)F)o3)cn2)C(=O)c2ccc(N3CCCCC3)cc21 [US12440484, Compound 27]
> 10000 nM | 52 nM | CC1(C)C(=O)N(Cc2ccc(-c3nnc(C(F)F)o3)cn2)C(=O)c2ccc(N3CCN(CC(F)(F)F)CC3)cc21 [US12440484, Compound 141]
> 10000 nM | 455 nM | O=c1c2ccccc2n(CCN2CCCCC2)c(=O)n1Cc1ccc(-c2nnc(C(F)F)o2)cc1F [US12440484, Compound 10]
